How the values were obtained:
[1] = human gut metagenome, 24 h, 2 µM
[2] = The drug is tested on Z-013 corresponding to rabbit gut metagenome with ENA study accession number: PRJEB37062 and ENA sample accession number: ERS12561813 for biotransformation under anaerobic condition. The drug concentrations were measured over 9 timepoints collected between 0 and 24 hours of incubation by liquid-chromatography-coupled mass spectrometry (LC–MS); details: 2 µM
[3] = The drug is tested on Z-006 corresponding to mouse gut metagenome with ENA study accession number: PRJEB37062 and ENA sample accession number: ERS12561806 for biotransformation under anaerobic condition. The drug concentrations were measured over 9 timepoints collected between 0 and 24 hours of incubation by liquid-chromatography-coupled mass spectrometry (LC–MS); details: 2 µM
[4] = human gut metagenome, 24 h, 2 µM; remark: listed apart in the source
[5] = The drug is tested on Z-019 corresponding to rat gut metagenome with ENA study accession number: PRJEB37062 and ENA sample accession number: ERS12561818 for biotransformation under anaerobic condition. The drug concentrations were measured over 9 timepoints collected between 0 and 24 hours of incubation by liquid-chromatography-coupled mass spectrometry (LC–MS); details: 2 µM
[6] = The drug is tested on Z-026 corresponding to metagenome with ENA study accession number: PRJEB37062 and ENA sample accession number: ERS12561825 for biotransformation under anaerobic condition. The drug concentrations were measured over 9 timepoints collected between 0 and 24 hours of incubation by liquid-chromatography-coupled mass spectrometry (LC–MS); details: 2 µM
[7] = human gut metagenome, 24 h, 2 µM; remark: listed apart in the source
[8] = human gut metagenome, 24 h, 2 µM; remark: listed apart in the source
[9] = human gut metagenome, 24 h, 2 µM; remark: listed apart in the source
[10] = human gut metagenome, 24 h, 2 µM; remark: listed apart in the source
[11] = The drug is tested on WLS-077 corresponding to human gut metagenome with ENA study accession number: PRJEB37062 and ENA sample accession number: ERS12561750 for biotransformation under anaerobic condition. The drug concentrations were measured over 9 timepoints collected between 0 and 24 hours of incubation by liquid-chromatography-coupled mass spectrometry (LC–MS); details: 2 µM
[12] = The drug is tested on WLS-170 corresponding to human gut metagenome with ENA study accession number: PRJEB37062 and ENA sample accession number: ERS12561762 for biotransformation under anaerobic condition. The drug concentrations were measured over 9 timepoints collected between 0 and 24 hours of incubation by liquid-chromatography-coupled mass spectrometry (LC–MS); details: 2 µM
[13] = The drug is tested on Z-017 corresponding to mouse gut metagenome with ENA study accession number: PRJEB37062 and ENA sample accession number: ERS12561816 for biotransformation under anaerobic condition. The drug concentrations were measured over 9 timepoints collected between 0 and 24 hours of incubation by liquid-chromatography-coupled mass spectrometry (LC–MS); details: 2 µM
[14] = The drug is tested on WLS-027 corresponding to human gut metagenome with ENA study accession number: PRJEB37062 and ENA sample accession number: ERS12561744 for biotransformation under anaerobic condition. The drug concentrations were measured over 9 timepoints collected between 0 and 24 hours of incubation by liquid-chromatography-coupled mass spectrometry (LC–MS); details: 2 µM
[15] = The drug is tested on Z-014 corresponding to rat gut metagenome with ENA study accession number: PRJEB37062 and ENA sample accession number: ERS12561814 for biotransformation under anaerobic condition. The drug concentrations were measured over 9 timepoints collected between 0 and 24 hours of incubation by liquid-chromatography-coupled mass spectrometry (LC–MS); details: 2 µM
[16] = human gut metagenome, 24 h, 2 µM; remark: listed apart in the source
[17] = The drug is tested on WLS-240 corresponding to human gut metagenome with ENA study accession number: PRJEB37062 and ENA sample accession number: ERS12561773 for biotransformation under anaerobic condition. The drug concentrations were measured over 9 timepoints collected between 0 and 24 hours of incubation by liquid-chromatography-coupled mass spectrometry (LC–MS); details: 2 µM
[18] = human gut metagenome, 24 h, 2 µM; remark: listed apart in the source
[19] = human gut metagenome, 24 h, 2 µM; remark: listed apart in the source
[20] = human gut metagenome, 24 h, 2 µM; remark: listed apart in the source
Also: call rule not given here.

Structure (SMILES)	Bacterial Biotransformation [1]	Bacterial Biotransformation [2]	Bacterial Biotransformation [3]	Bacterial Biotransformation [4]	Bacterial Biotransformation [5]	Bacterial Biotransformation [6]	Bacterial Biotransformation [7]	Bacterial Biotransformation [8]	Bacterial Biotransformation [9]	Bacterial Biotransformation [10]	Bacterial Biotransformation [11]	Bacterial Biotransformation [12]	Bacterial Biotransformation [13]	Bacterial Biotransformation [14]	Bacterial Biotransformation [15]	Bacterial Biotransformation [16]	Bacterial Biotransformation [17]	Bacterial Biotransformation [18]	Bacterial Biotransformation [19]	Bacterial Biotransformation [20]
CN1CCC(=C2c3ccccc3CCc3cccnc32)CC1.O=C(O)/C=C\C(=O)O.O=C(O)/C=C\C(=O)O [AZATADINE MALEATE]	Compound NOT metabolized	Compound NOT metabolized	Compound NOT metabolized	Compound metabolized	Compound NOT metabolized	Compound NOT metabolized	Compound NOT metabolized	Compound NOT metabolized	Compound NOT metabolized	Compound NOT metabolized	Compound NOT metabolized	Compound NOT metabolized	Compound NOT metabolized	Compound NOT metabolized	Compound NOT metabolized	Compound NOT metabolized	Compound NOT metabolized	Compound metabolized	Compound NOT metabolized	Compound NOT metabolized
CC(=O)OCC(=O)[C@@]1(O)[C@@H](C)C[C@H]2[C@@H]3CCC4=CC(=O)C=C[C@]4(C)[C@@]3(F)[C@@H](O)C[C@@]21C [BETAMETHASONE ACETATE]	Compound NOT metabolized	Compound metabolized	Compound metabolized	Compound metabolized	Compound NOT metabolized	Compound metabolized	Compound metabolized	Compound metabolized	Compound metabolized	Compound metabolized	Compound NOT metabolized	Compound metabolized	Compound metabolized	Compound metabolized	Compound NOT metabolized	Compound metabolized	Compound metabolized	Compound metabolized	Compound metabolized	Compound metabolized
CC(C)NCC(O)COc1ccc(CCOCC2CC2)cc1 (stereo not given) [BETAXOLOL]	Compound NOT metabolized	Compound NOT metabolized	Compound NOT metabolized	Compound metabolized	Compound NOT metabolized	Compound NOT metabolized	Compound NOT metabolized	Compound NOT metabolized	Compound NOT metabolized	Compound NOT metabolized	Compound NOT metabolized	Compound metabolized	Compound NOT metabolized	Compound NOT metabolized	Compound NOT metabolized	Compound metabolized	Compound metabolized	Compound metabolized	Compound NOT metabolized	Compound metabolized
CC(C)(Oc1ccc(CCNC(=O)c2ccc(Cl)cc2)cc1)C(=O)O [BEZAFIBRATE]	Compound NOT metabolized	Compound metabolized	Compound NOT metabolized	Compound metabolized	Compound NOT metabolized	Compound NOT metabolized	Compound NOT metabolized	Compound metabolized	Compound NOT metabolized	Compound metabolized	Compound metabolized	Compound metabolized	Compound NOT metabolized	Compound metabolized	Compound NOT metabolized	Compound metabolized	Compound metabolized	Compound metabolized	Compound metabolized	Compound metabolized
CC(O)(CS(=O)(=O)c1ccc(F)cc1)C(=O)Nc1ccc(C#N)c(C(F)(F)F)c1 (stereo not given) [BICALUTAMIDE]	Compound NOT metabolized	Compound NOT metabolized	Compound NOT metabolized	Compound NOT metabolized	Compound NOT metabolized	Compound NOT metabolized	Compound NOT metabolized	Compound NOT metabolized	Compound NOT metabolized	Compound NOT metabolized	Compound NOT metabolized	Compound NOT metabolized	Compound NOT metabolized	Compound NOT metabolized	Compound NOT metabolized	Compound NOT metabolized	Compound NOT metabolized	Compound NOT metabolized	Compound NOT metabolized	Compound NOT metabolized
CCCC1O[C@@H]2C[C@H]3[C@@H]4CCC5=CC(=O)C=C[C@]5(C)[C@H]4[C@@H](O)C[C@]3(C)[C@]2(C(=O)CO)O1 (stereo not given in full) [BUDESONIDE]	Compound NOT metabolized	Compound metabolized	Compound NOT metabolized	Compound metabolized	Compound NOT metabolized	Compound NOT metabolized	Compound metabolized	Compound metabolized	Compound metabolized	Compound metabolized	Compound metabolized	Compound metabolized	Compound metabolized	Compound metabolized	Compound metabolized	Compound metabolized	Compound metabolized	Compound metabolized	Compound metabolized	Compound metabolized

Source: ChEMBL document CHEMBL5724914, “Linking interpersonal differences in gut microbiota composition and drug biotransformation activity” (2024)
